The structures appear in SMILES notation.

For the test, the target named is human F508del-CFTR (Homo sapiens, UniProt P13569, DEL508-508). The test is described as follows: F508del-CFTR cell surface expression (corrector activity), DiscoveRx ß-galactosidase complementation chemiluminescence assay in recombinant U2OS cell line.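 As to all read-outs here: U2OS cells co-expressing ProLink-tagged F508del-CFTR and a membrane-anchored enzyme acceptor, where more surface CFTR restores β-galactosidase activity measured by chemiluminescence.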 The note with it: U2OS cells, 16h compound incubation; for EC50: EC50, F508del-CFTR cell surface expression, geomean of several measurements; for Emax: U2OS, in relation to the Emax of the corrector lumacaftor (=100%), arithmetic mean.
Chain of human F508del-CFTR (P13569 with tags, fused parts or gaps DEL508-508): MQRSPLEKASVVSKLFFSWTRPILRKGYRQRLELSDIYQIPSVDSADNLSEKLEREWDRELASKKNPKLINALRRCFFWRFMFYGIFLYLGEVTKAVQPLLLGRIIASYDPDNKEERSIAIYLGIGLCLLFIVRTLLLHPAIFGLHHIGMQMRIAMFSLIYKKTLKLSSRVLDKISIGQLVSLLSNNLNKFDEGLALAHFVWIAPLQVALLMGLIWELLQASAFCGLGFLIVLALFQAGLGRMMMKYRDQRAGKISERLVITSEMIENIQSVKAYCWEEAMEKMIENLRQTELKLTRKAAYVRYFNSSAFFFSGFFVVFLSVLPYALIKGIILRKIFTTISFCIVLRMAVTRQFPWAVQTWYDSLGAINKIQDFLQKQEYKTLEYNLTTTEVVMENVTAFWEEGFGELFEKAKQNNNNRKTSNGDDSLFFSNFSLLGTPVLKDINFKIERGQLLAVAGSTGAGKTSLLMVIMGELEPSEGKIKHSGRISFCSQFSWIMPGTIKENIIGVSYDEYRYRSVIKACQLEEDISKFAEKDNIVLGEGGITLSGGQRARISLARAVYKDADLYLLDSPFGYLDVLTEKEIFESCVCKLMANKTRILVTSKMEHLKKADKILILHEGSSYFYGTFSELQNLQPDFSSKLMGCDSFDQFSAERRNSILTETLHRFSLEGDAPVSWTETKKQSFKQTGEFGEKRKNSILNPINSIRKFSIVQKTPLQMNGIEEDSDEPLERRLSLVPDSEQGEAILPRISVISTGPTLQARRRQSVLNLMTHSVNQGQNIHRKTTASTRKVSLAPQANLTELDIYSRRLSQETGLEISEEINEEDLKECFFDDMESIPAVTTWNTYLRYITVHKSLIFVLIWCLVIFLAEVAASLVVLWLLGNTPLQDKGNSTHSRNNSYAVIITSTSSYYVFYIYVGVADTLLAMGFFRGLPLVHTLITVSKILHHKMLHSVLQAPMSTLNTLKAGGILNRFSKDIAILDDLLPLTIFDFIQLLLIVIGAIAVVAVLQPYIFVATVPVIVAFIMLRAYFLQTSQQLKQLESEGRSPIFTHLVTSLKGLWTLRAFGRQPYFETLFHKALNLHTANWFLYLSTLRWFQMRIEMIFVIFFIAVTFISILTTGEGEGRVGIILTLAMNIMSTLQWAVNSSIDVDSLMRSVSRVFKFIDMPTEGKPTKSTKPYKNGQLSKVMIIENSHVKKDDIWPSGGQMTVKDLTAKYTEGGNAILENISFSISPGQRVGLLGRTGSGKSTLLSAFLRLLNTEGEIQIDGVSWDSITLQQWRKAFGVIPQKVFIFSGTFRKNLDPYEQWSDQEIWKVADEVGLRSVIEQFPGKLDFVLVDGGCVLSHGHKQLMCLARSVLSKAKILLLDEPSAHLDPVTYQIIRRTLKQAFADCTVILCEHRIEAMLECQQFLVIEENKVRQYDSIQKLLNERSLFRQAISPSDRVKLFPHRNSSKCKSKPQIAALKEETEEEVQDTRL

As to `COc1nc(C)cc2c1C(=O)N[C@H](C(=O)NCCn1ncc(C#N)n1)CC(=O)N(C)[C@@H](CC(C)C)C(=O)N1CCCC[C@@H]1C(=O)N[C@H](Cc1ccccc1)CO2` [Example 836, (7S,11S,17aR,20R)-20-benzyl-N-(2-(4-cyano-2H-1,2,3-triazol-2-yl)ethyl)-11-isobutyl-4-methoxy-2,10-dimethyl-5,9,12,18-tetraoxo-5,6,7,8,9,10,11,12,15,16,17,17a,18,19,20,21-hexadecahydro-14H-dipyrido[2,1-f:3′,4′-p][1]oxa[4,7,10,14]tetraazacycloheptadecine-7-carboxamide], the EC50 is 967 nM and the maximal effect (Emax) was determined as 257%.
The matching figures for `CC(C)C[C@H]1C(=O)N(C)[C@H](Cc2nc(-c3ccc(F)cn3)no2)C(=O)N[C@H](Cc2ccccc2)COc2cnc3ccc(F)cc3c2C(=O)N[C@H](C(=O)NCCn2ncc(C3CC3)n2)CC(=O)N1C` [Example 837, (3S,7S,10R,13R)-13-benzyl-N-(2-(4-cyclopropyl-2H-1,2,3-triazol-2-yl)ethyl)-20-fluoro-10-((3-(5-fluoropyridin-2-yl)-1,2,4-oxadiazol-5-yl)methyl)-7-isobutyl-6,9-dimethyl-1,5,8,11-tetraoxo-1,2,3,4,5,6,7,8,9,10,11,12,13,14-tetradecahydro-[1]oxa[4,7,10,14]tetraazacycloheptadecino[17,16-c]quinoline-3-carboxamide]: 198 nM and 358%.
The corresponding values for `CC(C)C[C@H]1C(=O)N(C)C2(CC(F)(F)C2)C(=O)N[C@H](Cc2ccccc2)COc2cnc3ccc(F)cc3c2C(=O)N[C@H](C(=O)NCCn2nnc(C3CC3)n2)CC(=O)N1C` [Example 838, (3′S,7′S,13′R)-13′-benzyl-N-(2-(5-cyclopropyl-2H-tetrazol-2-yl)ethyl)-3,3,20′-trifluoro-7′-isobutyl-6′,9′-dimethyl-1′,5′,8′,11′-tetraoxo-2′,3′,4′,5′,6′,7′,8′,9′,11′,12′,13′,14′-dodecahydro-1′H-spiro[cyclobutane-1,10′-[1]oxa[4,7,10,14]tetraazacycloheptadecino[17,16-c]quinoline]-3′-carboxamide] are 118 nM and 358%.
The corresponding values for `COc1cc(CCNC(=O)[C@@H]2CC(=O)N(C)[C@@H](CC(C)C)C(=O)N(C)C3(CC(F)(F)C3)C(=O)N[C@H](Cc3ccccc3)COc3cnc4ccc(F)cc4c3C(=O)N2)on1` [Example 839, (3′S,7′S,13′R)-13′-benzyl-3,3,20′-trifluoro-7′-isobutyl-N-(2-(3-methoxyisoxazol-5-yl)ethyl)-6′,9′-dimethyl-1′,5′,8′,11′-tetraoxo-2′,3′,4′,5′,6′,7′,8′,9′,11′,12′,13′,14′-dodecahydro-1′H-spiro[cyclobutane-1,10′-[1]oxa[4,7,10,14]tetraazacycloheptadecino[17,16-c]quinoline]-3′-carboxamide] are 123 nM and 336%.
With `CC(C)C[C@H]1C(=O)N(C)[C@H](Cc2nc(-c3ccc(F)cn3)no2)C(=O)N[C@H](Cc2ccccc2)COc2cnc3ccc(F)cc3c2C(=O)N[C@H](C(=O)NCCn2nc3ccccc3n2)CC(=O)N1C` [Example 840, (3S,7S,10R,13R)-N-(2-(2H-benzo[d][1,2,3]triazol-2-yl)ethyl)-13-benzyl-20-fluoro-10-((3-(5-fluoropyridin-2-yl)-1,2,4-oxadiazol-5-yl)methyl)-7-isobutyl-6,9-dimethyl-1,5,8,11-tetraoxo-1,2,3,4,5,6,7,8,9,10,11,12,13,14-tetradecahydro-[1]oxa[4,7,10,14]tetraazacycloheptadecino[17,16-c]quinoline-3-carboxamide], the EC50 turned out to be 128 nM and the maximal response (Emax) came out at 363%.
The matching figures for `CC(C)C[C@H]1C(=O)N(C)C2(CC(F)(F)C2)C(=O)N[C@H](Cc2ccccc2)COc2cnc3ccc(F)cc3c2C(=O)N[C@H](C(=O)NCCc2nc(C3CC3)no2)CC(=O)N1C` [Example 841, (3′S,7′S,13′R)-13′-benzyl-N-(2-(3-cyclopropyl-1,2,4-oxadiazol-5-yl)ethyl)-3,3,20′-trifluoro-7′-isobutyl-6′,9′-dimethyl-1′,5′,8′,11′-tetraoxo-2′,3′,4′,5′,6′,7′,8′,9′,11′,12′,13′,14′-dodecahydro-1′H-spiro[cyclobutane-1,10′-[1]oxa[4,7,10,14]tetraazacycloheptadecino[17,16-c]quinoline]-3′-carboxamide]: 120 nM and 271%.
Turning to `CC(C)C[C@H]1C(=O)N(C)[C@H](Cc2nc(-c3ccc(F)cn3)no2)C(=O)N[C@H](Cc2ccccc2)COc2cnc3ccc(F)cc3c2C(=O)N[C@H](C(=O)NC[C@@H](O)c2ccccc2)CC(=O)N1C` [Example 842, (3S,7S,10R,13R)-13-benzyl-20-fluoro-10-((3-(5-fluoropyridin-2-yl)-1,2,4-oxadiazol-5-yl)methyl)-N-((S)-2-hydroxy-2-phenylethyl)-7-isobutyl-6,9-dimethyl-1,5,8,11-tetraoxo-1,2,3,4,5,6,7,8,9,10,11,12,13,14-tetradecahydro-[1]oxa[4,7,10,14]tetraazacycloheptadecino[17,16-c]quinoline-3-carboxamide], the concentration giving a half-maximal response (EC50) came to 495 nM and the maximum response (Emax) was found to be 305%.
The matching figures for `COc1ccc(CCNC(=O)[C@@H]2CC(=O)N(C)[C@@H](CC(C)C)C(=O)N(C)[C@H](Cc3nc(-c4ccc(F)cn4)no3)C(=O)N[C@H](Cc3ccccc3)COc3cnc4ccc(F)cc4c3C(=O)N2)cn1` [Example 843, (3S,7S,10R,13R)-13-benzyl-20-fluoro-10-((3-(5-fluoropyridin-2-yl)-1,2,4-oxadiazol-5-yl)methyl)-7-isobutyl-N-(2-(6-methoxypyridin-3-yl)ethyl)-6,9-dimethyl-1,5,8,11-tetraoxo-1,2,3,4,5,6,7,8,9,10,11,12,13,14-tetradecahydro-[1]oxa[4,7,10,14]tetraazacycloheptadecino[17,16-c]quinoline-3-carboxamide]: 114 nM and 368%.
As to `CC(C)C[C@H]1C(=O)N(C)[C@H](Cc2nc(-c3ccc(F)cn3)no2)C(=O)N[C@H](Cc2ccccc2)COc2cnc3ccc(F)cc3c2C(=O)N[C@H](C(=O)NCCc2nc3ncccn3n2)CC(=O)N1C` [Example 844, (3S,7S,10R,13R)-N-(2-([1,2,4]triazolo[1,5-a]pyrimidin-2-yl)ethyl)-13-benzyl-20-fluoro-10-((3-(5-fluoropyridin-2-yl)-1,2,4-oxadiazol-5-yl)methyl)-7-isobutyl-6,9-dimethyl-1,5,8,11-tetraoxo-1,2,3,4,5,6,7,8,9,10,11,12,13,14-tetradecahydro-[1]oxa[4,7,10,14]tetraazacycloheptadecino[17,16-c]quinoline-3-carboxamide], the 50% effective concentration (EC50) was 1040 nM and the maximal effect (Emax) is 356%.
Take `COCCCNC(=O)[C@@H]1CC(=O)N(C)[C@@H](CC(C)C)C(=O)N(C)[C@H](Cc2nc(-c3ccc(F)cn3)no2)C(=O)N[C@H](Cc2ccccc2)COc2cnc3ccc(F)cc3c2C(=O)N1` [Example 845, (3S,7S,10R,13R)-13-benzyl-20-fluoro-10-((3-(5-fluoropyridin-2-yl)-1,2,4-oxadiazol-5-yl)methyl)-7-isobutyl-N-(3-methoxypropyl)-6,9-dimethyl-1,5,8,11-tetraoxo-1,2,3,4,5,6,7,8,9,10,11,12,13,14-tetradecahydro-[1]oxa[4,7,10,14]tetraazacycloheptadecino[17,16-c]quinoline-3-carboxamide]: the EC50 came to 453 nM and the maximal response (Emax) amounted to 308%.

By EC50 is commonly meant the concentration that produces a half-maximal response. One may read the Emax as the maximal effect, on the per cent scale that the assay sets.

The record behind these values is patent publication US20240208992A1, “MACROCYCLES AS CFTR MODULATORS” (Idorsia Pharmaceuticals Ltd, priority 2021, published 2024).
